We go through four compounds from PMC4718634, “Murine GPRC6A Mediates Cellular Responses to L-Amino Acids, but Not Osteocalcin Variants” (PLoS ONE, 2016).

For one assay, the system named is 22RV1 / PC-3. The settings on record: endogenous; ref [9] (supplement list); cited from earlier work. The text has this:
(§1) Supplement pone.0146846.s004.docx, table 1 | column: Functional assay

The subject of a further assay is hC6A. The following applies: ref [9] (supplement list); cited from earlier work.
Description: as §1

A further assay has as its target T1, mGPRC6A (mouse GPRC6A) (Mus musculus, UniProt Q8K4Z6).
T1 sequence (Q8K4Z6 21-928): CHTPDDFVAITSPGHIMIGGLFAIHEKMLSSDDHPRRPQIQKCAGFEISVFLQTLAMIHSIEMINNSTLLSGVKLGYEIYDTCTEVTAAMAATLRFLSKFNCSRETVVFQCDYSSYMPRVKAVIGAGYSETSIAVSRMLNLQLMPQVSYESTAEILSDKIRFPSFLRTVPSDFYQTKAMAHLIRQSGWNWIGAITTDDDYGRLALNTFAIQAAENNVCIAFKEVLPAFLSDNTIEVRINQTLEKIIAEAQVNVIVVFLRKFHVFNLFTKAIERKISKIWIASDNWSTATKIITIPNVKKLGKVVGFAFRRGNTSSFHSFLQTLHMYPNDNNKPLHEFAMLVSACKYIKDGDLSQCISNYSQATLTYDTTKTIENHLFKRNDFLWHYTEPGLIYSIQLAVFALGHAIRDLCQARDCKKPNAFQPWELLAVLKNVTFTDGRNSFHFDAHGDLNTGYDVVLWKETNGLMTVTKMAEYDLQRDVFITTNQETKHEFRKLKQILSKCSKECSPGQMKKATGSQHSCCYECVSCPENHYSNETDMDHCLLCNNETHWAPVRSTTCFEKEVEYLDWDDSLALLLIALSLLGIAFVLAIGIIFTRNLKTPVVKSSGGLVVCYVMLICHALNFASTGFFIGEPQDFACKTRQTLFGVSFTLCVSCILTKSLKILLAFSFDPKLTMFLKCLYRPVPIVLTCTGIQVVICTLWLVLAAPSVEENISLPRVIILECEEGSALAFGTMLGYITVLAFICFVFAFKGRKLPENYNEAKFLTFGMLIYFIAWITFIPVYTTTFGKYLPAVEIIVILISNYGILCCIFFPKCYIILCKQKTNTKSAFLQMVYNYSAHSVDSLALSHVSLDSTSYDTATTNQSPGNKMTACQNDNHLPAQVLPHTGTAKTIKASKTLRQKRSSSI
Description: Label-free cell impedance (xCELLigence), tetracycline-induced FlpIn-TREx-HEK293-mGPRC6A cells. It is filed as cell-based. The following applies: tetracycline-induced; xCELLigence; Fig 4. As to the method:
(§2) 2.5 x 10^7 FlpIn-TREx-HEK293-mGPRC6A cells were seeded in a T175 flask and incubated overnight at 37°C in 5% CO2. Cells were then transfected with 35 μg of plasmid DNA (GαqG66D) with Lipofectamine LTX according to manufacturer's instructions, then incubated for 24h at 37°C in 5% CO2. Prior to the experiment, a background reading for each E-plate 96 (Bio-Rad, CA, USA) was measured after addition of 100 μl DMEM + 10% FBS per well. Cells were recovered using Versene and seeded at a 10^5 cells/well density in 200 μl DMEM + 10% FBS (containing 1 μg/ml tetracycline where indicated). Cells were washed 2 x 2 h in HBSS buffer (pH 7.2) containing 20 mM HEPES, 1 mM CaCl2 and 0.1% BSA (w/v) in a total volume of 180 μl. Test compounds (20 μl at 10x final concentration) were added to the plate and cell impedance was monitored for 3 h. Cell index was normalised to the buffer response (minus the baseline response at zero time point).
(§3) Concentration-response data were analysed using a three or four parameter logistic function (Motulsky & Christopoulos, 2004) to generate estimates of agonist potency (LogEC50). Data for all HEK293 assays represent the mean ± SEM of at least three independent experiments (except cell impedance, n = 2). For GLP-1 release, the data represent mean ± SEM of three to five independent experiments (except for OCN, wash; n = 2). For insulin release assays, data represent the mean ± SEM of three independent experiments (except for islet studies; n = 2). Insulin release data were normalised to the response to vehicle in either low or high [glucose]. Statistical analysis for GLP-1 release data were performed by one-way ANOVA, followed by Sidak’s multiple comparisons test (treating wash / no wash datasets separately). Statistical analyses for insulin release data were performed by two-way ANOVA (with [glucose] and drug treatment as group variables), followed by Sidak’s multiple comparisons test. Where only high [glucose] groups were evaluated, statistical analysis was by one-way ANOVA followed by Sidak’s multiple comparisons test.

For assay [1], the system named is un-induced FlpIn-TREx-HEK293-mGPRC6A cells. Description: Label-free cell impedance, un-induced FlpIn-TREx-HEK293-mGPRC6A cells. The settings on record: Fig 4. It is filed as cell-based. As to the method:
as §2

The next assay has as its system MIN6 cells. Briefly: Insulin release from MIN6 cells. It is filed as cell-based, murine. The following applies: 16.7 mM glucose; P < 0.0001, two-way ANOVA; Fig 6B. As to the method:
(§4) MIN6 or βTC-6 cells were seeded in 24-well plates at 170,000 cells per well in DMEM (containing 4.5g/L glucose, 10 mM HEPES, 100 U/ml penicillin, 100 μg/ml streptomycin and 15% de-complemented FBS) and incubated at 37°C / 5% CO2 for 72 h. Cells were then washed with 500 μl PBS and incubated in 500 μl deprivation media (DMEM with zero glucose, 10 mM HEPES, 1 mM Na-pyruvate, 100 U/ml penicillin, 100 μg/ml streptomycin, 15% de-complemented FBS) for 2 h at 37°C. Media was aspirated and after washing with 500 μl PBS, cells were treated with 250 μl of Krebs buffer (250 mM NaCl, 5.9 mM KCl, 1.2 mM MgCl2, 1.3 mM CaCl2, 25 mM HEPES, 0.1% BSA (w/v), and 2 mM or 16.7 mM glucose; pH 7.4) in the presence or absence of test compound. After incubation for 2 h at 37°C, the assay was terminated by placing the plates on ice and supernatants were transferred to a 96-well plate in preparation for insulin ELISA (Alpco) following manufacturer’s instructions. The cell monolayer was washed twice with 500 μl of PBS and then lysed using 250 μl of 1 N NaOH prior to protein measurement by the method of Bradford (1976).
as §3

A further assay has as its system β-TC6 cells. Description: Insulin release from β-TC6 cells. It is filed as cell-based, murine. The settings on record: P < 0.001, P < 0.0001, two-way ANOVA, S3 Fig A. The protocol:
as §4, §3

For another assay, the system named is mouse pancreatic islets. Description: Insulin release from mouse pancreatic islets. It is filed as cell-based. The following applies: n = 2; P < 0.001, P < 0.0001; S3 Fig B. As to the method: Islets were collagenase-isolated from mice (10 x C57Bl/6; 12–13 weeks; Charles River) and incubated overnight in RPMI (with 10% FBS (v/v), 10 mM HEPES, 100 U/ml penicillin, 100 μg/ml streptomycin, sodium pyruvate and 10 mM glucose) at 37°C in 5% CO2. Islets were seeded into a 96-well plate (4 / well) in Kreb’s buffer containing 2.8 mM glucose and washed twice with the same buffer. 200 μl test drugs were added in Kreb’s buffer with the required concentration of glucose and incubated at 37°C in 5% CO2 for 90 min. The plate was centrifuged for 10 s at 200 g, supernatant recovered and insulin levels detected as described above. This protocol was approved by the IDRS (Institut de Recherches Servier) Institutional Animal Care and Use Committee.
as §3

A further assay concerns INS-1(832) cells. Description: Label-free cell impedance, INS-1(832) cells. It is filed as cell-based, rat. The following applies: Gprc6a-negative, EBSS, 2.8 mM glucose, Fig 7, two-way ANOVA, *P < 0.05, **P < 0.01 vs Vehicle. As to the method:
For INS-1 cells, 100 μl of medium (RPMI 1640 no glucose, 10% FBS, 55 μM β-mercaptoethanol, 1 mM sodium pyruvate, 10 mM HEPES, 100 U/ml penicillin, 100 μg/ml streptomycin, 11.1 mM glucose) was added per well to an E-plate 96 and a background reading taken. Cells were seeded at 2 x 10^4 / well and the plates incubated in the instrument for 48 h. On the day of the experiment, media was changed to EBSS buffer (180 μl; 2.8 mM glucose, 1.8 mM CaCl2, 5.3 mM KCl, 0.8 mM MgSO4, 117 mM NaCl, 26 mM NaHCO3, 1 mM NaH2PO4). After 2 h incubation, cells were stimulated with 20 μl test compound (10 x final) prepared in the same buffer. Data capture and analysis were as for HEK293 cells.

“Also recorded” adds a separate entry of the source. Ends that are not written are not given here.

As for `[Cl-].[Cl-].[Zn+2]` [ZnCl2], the pERK1/2 response result in the assay on 22RV1 / PC-3 is “pERK1/2 – response to Ca^2+, ZnCl2, OCN, Arginine, Testosterone-BSA Proliferation – response to Ca^2+, OCN PSA, Runx2 expression – response to OCN, Arg, R1881 Chemotaxis (22RV1) – response to Ca^2+, OCN”; with hC6A, “pERK1/2 – response to Ca^2+, ZnCl2, OCN, Arginine, Testosterone-BSA”.

For the compound `Nc1ncnc2c1ncn2[C@@H]1O[C@H](COP(=O)(O)OP(=O)(O)OP(=O)(O)O)[C@@H](O)[C@H]1O` [ATP], the “cell impedance (cell index) response” value (at mGPRC6A (mouse GPRC6A); in assay [1]) was “concentration-dependent increase in cell index; also recorded: increases cellular impedance” each time.

Regarding `OC[C@H]1OC(O)[C@H](O)[C@@H](O)[C@@H]1O` (stereo partly drawn) [glucose], the “insulin secretion, glucose effect” value is “significantly promoted insulin secretion; also recorded: significantly enhanced insulin secretion” in the assay with MIN6 cells, “released insulin in a glucose-sensitive manner” in the assay with β-TC6 cells, “significantly enhanced insulin secretion” in the assay on β-TC6 cells (listed as Glucose) and “released insulin in a glucose-sensitive manner; also recorded: significantly enhanced insulin secretion” in the assay with mouse pancreatic islets.

Regarding “Bovine OCN: Purified bovine osteocalcin from bone (Meridian Life Science), carboxylated / under-carboxylated (YLDHWLGAPAPYPDPLEPKREVCELNPDCDELADHIGFQEAYRRFYGPV; ends and bridges not checked; also: γ-carboxyglutamic acid residues, partially carboxylated)”, the “cell impedance (cell index) response” value (in the assay with mGPRC6A (mouse GPRC6A); in assay [1]) was “did not change cell impedance” throughout. In addition, the “change in cell impedance (cell index)” value with INS-1(832) cells is “significant, concentration-dependent activity”; in the assay with INS-1(832) cells (listed as purified bovine OCN) it was “significant changes in cell impedance; also recorded: Concentration-dependent increases in cell index”.
